Read-outs that look alike come from different tables or passages of the source.
Columns and labels:
[1] = logP at pH 3.5, given with the characterisation data; assay type: physicochemical; settings: pH3.5
[2] = tested on: Alternaria solani; assay: Alternaria test (tomato) / preventive; assay type: in vivo; settings: 500ppm of active ingredient, evaluated 7 days after the inoculation
Method: (§1) To produce a suitable preparation of active compound, 1 part by weight of active compound is mixed with the stated amounts of solvent and emulsifier, and the concentrate is diluted with water to the desired concentration.
To test for preventive activity, young plants are sprayed with the preparation of active compound at the stated rate of application. One day after this treatment, the plants are inoculated with an aqueous spore suspension of Alternaria solani. The plants remain for one day in an incubation cabinet at approximately 22°C and a relative atmospheric humidity of 100%. Then the plants are placed in an incubation cabinet at approximately 20°C and a relative atmospheric humidity of 96%.
The test is evaluated 7 days after the inoculation. 0% means an efficacy which corresponds to that of the control while an efficacy of 100% means that no disease is observed.

[3] = tested on: Fusarium graminearum; assay: microbe, parasite or virus in culture; assay type: cell-based
[4] = tested on: Pyrenophora teres; assay: Pyrenophora test (barley) / preventive; assay type: in vivo; settings: 500ppm of active ingredient, evaluated 7-9 days after the inoculation
Method: as §1
To test for preventive activity, young plants are sprayed with the preparation of active compound at the stated rate of application. One day after this treatment, the plants are inoculated with an aqueous spore suspension of Pyrenophora teres. The plants remain for 48 hours in an incubation cabinet at 22°C and a relative atmospheric humidity of 100%. Then the plants are placed in a greenhouse at a temperature of approximately 20°C and a relative atmospheric humidity of approximately 80%.
The test is evaluated 7-9 days after the inoculation. 0% means an efficacy which corresponds to that of the control while an efficacy of 100% means that no disease is observed.

[5] = tested on: Fusarium proliferatum; assay: microbe, parasite or virus in culture; assay type: cell-based; settings: 120 h, read-out: inhibition of Fumonisin FB1 production
[6] = tested on: Venturia inaequalis; assay: Venturia test (apples) / protective; assay type: in vivo; settings: 100ppm of active ingredient, evaluated 10 days after the inoculation
Method: as §1
To test for protective activity, young plants are sprayed with the preparation of active compound at the stated rate of application. After the spray coating has dried on, the plants are inoculated with an aqueous conidia suspension of the causal agent of apple scab (Venturia inaequalis) and then remain for 1 day in an incubation cabinet at approximately 20°C and a relative atmospheric humidity of 100 %.
The plants are then placed in a greenhouse at approximately 21°C and a relative atmospheric humidity of approximately 90 %.
The test is evaluated 10 days after the inoculation. 0% means an efficacy which corresponds to that of the control, while an efficacy of 100% means that no disease is observed.

[7] = tested on: Botrytis cinerea; assay: Botrytis test (beans) / protective; assay type: in vivo; settings: 250ppm of active ingredient, lesion size 2 days after the inoculation
Method: as §1
To test for protective activity, young plants are sprayed with the preparation of active compound. After the spray coating has dried on, 2 small pieces of agar covered with growth of Botrytis cinerea are placed on each leaf. The inoculated plants are placed in a darkened chamber at 20°C and a relative atmospheric humidity of 100%.
2 days after the inoculation, the size of the lesions on the leaves is evaluated. 0% means an efficacy which corresponds to that of the control, while an efficacy of 100% means that no disease is observed.

[8] = tested on: Fusarium graminearum; assay type: in vivo; settings: barley, preventive, 1000ppm of active ingredient, evaluated 5 days after the inoculation

| Compound | logD [1] | efficacy [2] [%] | inhibition at 50 µM ([3]; 72 h, read-out: Growth inhibition of Fusarium graminearum) [%] | inhibition at 50 µM ([3]; 168 h, read-out: inhibition of DON/AcDON) [%] | efficacy [4] [%] | inhibition at 50 µM [5] [%] | efficacy [6] [%] | efficacy [7] [%] | efficacy [8] [%] |
| --- | --- | --- | --- | --- | --- | --- | --- | --- | --- |
| Fc1ccc(-c2c(-c3ccncc3)[nH]c3nccnc23)cc1 [Compound 1, 7-(4-fluorophenyl)-6-(pyridin-4-yl)-5H-Pyrrolo[2,3-b]pyrazine] | 1.33 | ≥ 70 | > 80 | > 80 | ≥ 70 | > 80 |  |  |  |
| C#CCn1c(-c2ccncc2)c(-c2ccc(F)cc2)c2nccnc21 [Compound 2, 7-(4-fluorophenyl)-5-(prop-2-ylyl)-6-(pyridin-4-yl)-5H-pyrrolo[2,3-b]pyrazine] | 2.22 | ≥ 70 |  |  | ≥ 70 | > 80 | ≥ 70 | ≥ 70 | ≥ 70 |

— patent publication EP2338890A1, “4,7-Diazaindole derivatives and their use as fungicides” (Bayer CropScience AG, priority 2009, dated 2011)
